# Test results: patent publication US7855292B2, “Sulfonamide compounds” (Janssen Pharmaceutica NV, priority 2004, dated 2010)
# Legend:
# CCK-1 receptor = molecular target: T1, CCK-1 receptor (Homo sapiens, UniProt P32238); test: CCK1 binding assay ([125I]-BH-CCK-8S displacement, CHO-K1 membranes); conditions: membranes of CHO-K1 cells stably transfected with the CCK-1 receptor, 20 pM [125I]-BH-CCK-8S, 0.3 μM PD-134,308 present, 60 min at 21±3° C.; for Ki: read-out: CCK1 pKi (converted)
# T1 construct: expressed in transfected cells; host or cells: CHO-K1
# T1 sequence (P32238 1-428): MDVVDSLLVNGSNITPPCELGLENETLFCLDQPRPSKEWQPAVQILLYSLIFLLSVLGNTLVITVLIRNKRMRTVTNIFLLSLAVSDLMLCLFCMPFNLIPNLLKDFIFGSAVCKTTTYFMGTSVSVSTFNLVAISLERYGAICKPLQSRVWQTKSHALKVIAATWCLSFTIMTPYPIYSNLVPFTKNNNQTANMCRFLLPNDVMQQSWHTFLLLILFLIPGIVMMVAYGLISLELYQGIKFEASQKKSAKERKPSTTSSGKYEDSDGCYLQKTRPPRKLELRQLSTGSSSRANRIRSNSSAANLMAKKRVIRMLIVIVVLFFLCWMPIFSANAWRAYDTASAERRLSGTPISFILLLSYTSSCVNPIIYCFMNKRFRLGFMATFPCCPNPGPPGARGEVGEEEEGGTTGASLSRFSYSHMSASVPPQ
# Description: 1. CCK1 Assay Development and Data Generation
# CHO-K1 cells that had undergone stable transfection with the CCK-1 receptor were grown in DMEM supplemented with L-glutamine (2 mM), penicillin (50 units/mL) and streptomycin (50 μg/mL). Cells were cultured under continuous G418 selection (2 mM) and were harvested using a rubber cell scraper. CHO-K1 cells were sub-cultured a maximum of ten times before being reseeded from the original stocks.
# Membranes were prepared from the stably transfected CHO-K1 cells. Frozen cell pellets (−40° C.) were thawed in 14 mL of buffer A (10 mM HEPES, 130 mM NaCl, 4.7 mM KCl, 5 mM MgCl, 1 mM EGTA and 15.4 mg/100 mL bacitracin at pH 7.2), adapted from Harper et al. (Br. J. Pharmacol. 1996, 118:1717-1726). The thawed pellets were homogenized using a Polytron PT-10 (7×1 s). The homogenates were centrifuged for 5 min at 1500 rpm (600×g), and the resulting pellets were discarded. The supernatants were re-centrifuged in order to collect the receptor-membrane pellets (25 min 15,000 rpm; 39,800×g), which were re-suspended in buffer A.
# All assays were conducted in 96-well plates (GF/B millipore filter plates) using buffer A, with 0.3 μM PD-134,308, for the dilutions. The CCK-2 receptor ligand was included to eliminate the contribution of this receptor subtype to the binding. For the optimal cell number determination experiments 20 pM [^125I]-BH-CCK-8S (50 μL […] solution) was incubated with a range of cell concentrations ([…] to 12.5×10^5 cells/well) in a total volume of 150 μL. Total binding of [^125I]-BH-CCK-8S was determined in the presence of 15 μL of buffer A. Non-specific binding of [^125I]-BH-CCK-8S was determined in the presence of 15 μL of 100 μM 2-naphthalenesulphonyl L-aspartyl-(2-phenethyl)amide (2-NAP: see R. A. Hull et al. Br. J. Pharmacol. 1993, 108:734-740), a CCK-1 receptor selective antagonist that is structurally unrelated to the radioligand [^125I]-BH-CCK-8S. The assay preparation was incubated for 1 h at 21±3° C., and then the assay was terminated upon rapid filtration of the preparation under reduced pressure. The loaded filters were washed three times using undiluted PBS ([…]), and then the residues were transferred to 5 mL scintillation tubes. Bound radioactivity was determined using a gamma counter (count time=1 min). […] To validate the radioligand concentration and incubation time for the assay, saturation and kinetic binding studies were also conducted (see M. F. Morton, The Pharmacological Characterization of Cholecystokinin Receptors in the Human Gastrointestinal Tract. PhD Thesis, University of London, 2000). […] The assay was then terminated according to the procedure outlined above.
# (§1) 3. Data Analysis for CCK1 and CCK2 Binding Assays
# The pKi values were determined using the equation of Y.-C. Cheng and W. H. Prusoff (Biochem. Pharmacol., 1973, 22(23):3099-3108):
# (§2) [formula] To circumvent problems associated with computer-assisted data analysis of compounds with low affinity, the data obtained in the current study were weighted according to a method described by Morton. In brief, 100% and 0% specific binding were defined independently using total binding and binding obtained in the presence of a high concentration of the reference antagonist, 2-NAP.
# CCK2 receptor = molecular target: T2, CCK2 receptor (Homo sapiens, UniProt P32239); test: CCK2 binding assay ([125I]-BH-CCK-8S displacement, HEKZFP membranes); conditions: membranes of doxycycline-induced HEKZFP cells; 20 pM [125I]-BH-CCK-8S; 60 min at 21±3° C.; read-out: CCK2 pKi (converted)
# T2 construct: analyzed for ZFP expression as well as CCK2R induction upon addition of doxycycline to the culture medium; endogenous in cells
# T2 sequence (P32239 1-447): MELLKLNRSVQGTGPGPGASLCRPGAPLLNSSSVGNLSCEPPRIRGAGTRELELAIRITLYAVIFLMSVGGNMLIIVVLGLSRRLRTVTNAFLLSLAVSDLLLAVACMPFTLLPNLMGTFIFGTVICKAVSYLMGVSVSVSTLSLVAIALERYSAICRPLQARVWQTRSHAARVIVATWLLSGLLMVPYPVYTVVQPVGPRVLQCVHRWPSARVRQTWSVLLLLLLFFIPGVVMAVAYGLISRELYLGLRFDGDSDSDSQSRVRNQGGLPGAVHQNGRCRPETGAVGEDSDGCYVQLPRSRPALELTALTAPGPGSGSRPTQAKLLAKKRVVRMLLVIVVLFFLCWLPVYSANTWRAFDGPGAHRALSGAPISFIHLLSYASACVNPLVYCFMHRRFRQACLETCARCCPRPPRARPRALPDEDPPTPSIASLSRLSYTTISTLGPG
# Description: 2. CCK2 Assay Development and Data Generation
# Zinc Finger Proteins (ZFP) specific for the CCK2R gene were identified by Sangamo Biosciences. The ZFP domain was fused with the herpes simplex virus VP16 activation domain, and the fusion protein was subsequently cloned into the pcDNA3 mammalian expression vector (Invitrogen, San Diego, Calif.). […] After 2 weeks of selection in culture medium containing […] Zeocin (Invitrogen), sixty drug-resistant stable clones were isolated and analyzed for ZFP expression as well as CCK2R induction upon addition of doxycycline to the culture medium.
# HEKZFP cells were grown in DMEM supplemented with L-glutamine (2 mM), penicillin (50 units/mL) and streptomycin (50 μg/mL) and 10% FBS (v/v).
# Membranes were prepared from the HEKZFP cells after induction. […] The thawed pellets were homogenized using a Polytron PT-10 (7×1 s). The homogenates were centrifuged for 5 min at 1500 rpm (600×g), and the resulting pellets were discarded. The supernatants were re-centrifuged in order to collect the receptor-membrane pellets (25 min 15,000 rpm; 39,800×g), which were re-suspended in buffer A.
# The assay preparation was incubated for 1 h at 21±3° C., and then the assay was terminated by rapid filtration of the preparation under reduced pressure. The loaded filters were washed three times using undiluted PBS (100 μL), and then 100 μL of scintillation fluid was added to the filter plate. Bound radioactivity was determined using a Topcount (Packard BioScience, Meriden, Conn.) with a count time of 1 min. […] To validate the radioligand concentration and incubation time for the assay, saturation and kinetic binding studies were also conducted (see M. F. Morton, The Pharmacological Characterization of Cholecystokinin Receptors in the Human Gastrointestinal Tract. PhD Thesis, University of London, 2000). […] The assay was then terminated according to the procedure outlined above.
# as §1
# The pKi values were determined using the equation of Y.-C.
# as §2
SMILES,Ki (CCK-1 receptor),Ki (CCK2 receptor),CCK1 pKi (CCK-1 receptor)
"O=C(NC(C(=O)O)C(O)c1ccc(Cl)c(Cl)c1)c1ccc(Cl)cc1NS(=O)(=O)c1cccc2nsnc12 (mixture of isomers) [Example 19, 2-[2-(Benzo[1,2,5]thiadiazole-4-sulfonylamino)-4-chloro-benzoylamino]-3-(3,4-dichloro-phenyl)-3-hydroxy-propionic acid]",200 nM,251 nM,
"CC(CNC(=O)c1ccc(Cl)cc1NS(=O)(=O)c1cccc2nsnc12)c1ccc(Cl)cc1 (racemic) [Example 1, (±)-2-(Benzo[1,2,5]thiadiazole-4-sulfonylamino)-4-chloro-N-[2-(4-chloro-phenyl)-propyl]-benzamide]",126 nM,398 nM,
"CC(CNC(=O)c1ccc(Cl)cc1NS(=O)(=O)c1ccc(F)cc1F)c1ccc(Cl)c(Cl)c1 (racemic) [Example 10, (±)-4-Chloro-N-[2-(3,4-dichloro-phenyl)-propyl]-2-(2,4-difluorobenzenesulfonylamino)-benzamide]",20 nM,7940 nM,
"Cc1ccc(C(=O)NC(CO)Cc2ccc(Cl)cc2)c(NS(=O)(=O)c2cccc3nsnc23)c1 (racemic) [Example 12, (±)-2-(Benzo[1,2,5]thiadiazole-4-sulfonylamino)-N-[2-(4-chloro-phenyl)-1-hydroxymethyl-ethyl]-4-methyl-benzamide]",1260 nM,63.1 nM,
"CC(CNC(=O)c1cc(Cl)ccc1NS(=O)(=O)c1cccc2nsnc12)c1ccc(Cl)c(Cl)c1 (racemic) [Example 16, (±)-2-(Benzo[1,2,5]thiadiazole-4-sulfonylamino)-5-chloro-N-[2-(3,4-dichloro-phenyl)-propyl]-benzamide]",63.1 nM,631 nM,
"COC(=O)C(NC(=O)c1ccc(Cl)cc1NS(=O)(=O)c1cccc2nccnc12)C(=O)c1ccc(Cl)c(Cl)c1 (racemic) [Example 18, (±)-2-[4-Chloro-2-(quinoxaline-5-sulfonylamino)-benzoylamino]-3-(3,4-dichloro-phenyl)-3-oxo-propionic acid methyl ester]",316 nM,1580 nM,
"O=C(NC(CO)Cc1ccc(Cl)cc1)c1ccc(Cl)cc1NS(=O)(=O)c1cccc2nsnc12 (racemic) [Example 52, (±)-2-(Benzo[1,2,5]thiadiazole-4-sulfonylamino)-4-chloro-N-[2-(4-chloro-phenyl)-1-hydroxymethyl-ethyl]-benzamide]",501 nM,100 nM,
"CC(Cc1ccc(Cl)cc1)NC(=O)c1ccc(Br)cc1NS(=O)(=O)c1cccc2nsnc12 (racemic) [Example 53, (±)-2-(Benzo[1,2,5]thiadiazole-4-sulfonylamino)-4-bromo-N-[2-(4-chloro-phenyl)-1-methyl-ethyl]-benzamide]",126 nM,2510 nM,
"Cc1ccc(C(=O)NCC(C)c2ccc(Cl)cc2)c(NS(=O)(=O)c2cccc3nsnc23)c1 (racemic) [Example 54, (±)-2-(Benzo[1,2,5]thiadiazole-4-sulfonylamino)-N-[2-(4-chloro-phenyl)-propyl]-4-methyl-benzamide]",794 nM,316 nM,
"CC(CNC(=O)c1ccc(Cl)cc1NS(=O)(=O)c1cccc2nsnc12)c1ccc(Cl)c(Cl)c1 (racemic) [Example 57, (±)-2-(Benzo[1,2,5]thiadiazole-4-sulfonylamino)-4-chloro-N-[2-(3,4-dichloro-phenyl)-propyl]-benzamide]",12.6 nM,501 nM,
"CC(CNC(=O)c1cc(Cl)c(Cl)cc1NS(=O)(=O)c1cccc2nsnc12)c1ccc(Cl)c(Cl)c1 (racemic) [Example 58, (±)-2-(Benzo[1,2,5]thiadiazole-4-sulfonylamino)-4,5-dichloro-N-[2-(3,4-dichloro-phenyl)-propyl]-benzamide]",31.6 nM,501 nM,
"O=C(N[C@H](Cc1ccc(Cl)c(Cl)c1)C(=O)O)c1ccc(Cl)cc1NS(=O)(=O)c1cccc2nsnc12 [Example 118, (R)-2-[2-(Benzo[1,2,5]thiadiazole-4-sulfonylamino)-4-chloro-benzoylamino]-3-(3,4-dichloro-phenyl)-propionic acid]",,,7.1
